pIC50: −log10 of the molar value.
Tests used:
Conditions in all cases: biochemical
[1] = biological target: PDGFRα (Homo sapiens (Human), UniProt P16234); assay: Inhibition of PDGFRα kinase activity (HTRF KinEASE-TK)
In short: (§1)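 Recombinant kinases (2 nM CSF1R and c-Kit, 10 nM PDGFRα/β, 2× working) preincubated 1 h with compound in 50 mM HEPES pH 7.4, 5 mM MgCl2 (c-Kit) or 10 mM (others), 2 mM MnCl2; 2× ATP: c-Kit 16 μM, PDGFRα 1 μM, PDGFRβ 40 μM, CSF1R 20 μM. 120 min reaction at rt; TR-FRET 665/620 nm; IC50 by 4-parameter fit.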

[2] = biological target: FLT3 (Homo sapiens (Human), UniProt P36888); assay: Inhibition of FLT3 kinase activity (HTRF KinEASE-TK); format: biochemical
Method: Inhibition of c-Kit, PDGFRα, PDGFRβ, CSFIR and FLT3 Kinase Activity
Compounds were evaluated to determine the potency with which they inhibit the kinase activity of the following panel of tyrosine kinases: c-Kit (SignalChem, Product #: K06-11BG), PDGFRα (SignalChem, Product #: P12-18G), PDGFRβ (SignalChem, Product #: P13-11G), CSFIR (SignalChem, Product #: C74-11G) and FLT3 (Invitrogen, Product #: PR4666C). Activity was determined as a function of phosphorylated biotinylated TK peptide generated by the transfer of phosphate from ATP as measured by the use of the HTRF KinEASE-TK assay kit (Cisbio, Product #: 62TKOPEJ). Levels of phosphorylated biotinylated TK peptide (Part 61TKOBLC of KinEASE assay kit) are quantified by its capture by phosphor-TK-Antibody-Cryptate (Part of KinEASE assay kit) and XL665-labeled Streptavidin (Part 610SAXLG of KinEASE assay kit) followed by measurement of Time-Resolved Fluorescence Resonance Energy Transfer (TR-FRET) signal. On the day of the assay, compounds were solubilized in DMSO and dispensed into a 384-well white Opti-plate (PerkinElmer, catalog #6007290) to generate a 22 point 1:2 titration. Enzyme solution was prepared for each of the tyrosine kinases in 50 mM HEPES, pH 7.4, 5 mM MgCl2 for c-Kit or 10 mM MgCl2 for FLT3, CSFIR, PDGFRa and PDGFRβ, 2 mM MnCl2, 0.01% Brij-35 and 0.01% BSA. Working enzyme concentrations were prepared for c-Kit at 2 nM (2×), PDGFRa and PDGFRß at 10 nM (2×), CSFIR at 2 nM (2×) and FLT3 at 0.4 nM (2×). Five microliters of enzyme dilution of each tyrosine kinase were added to their respective 384-well white Opti-plate pre-dispensed with compound and allowed to incubate for 1 h at rt. Utilizing the same enzyme buffer recipe, 2x substrate mixes were prepared for each enzyme as follows: For c-Kit, 1.6 μM (2×) TK substrate and 16 μM (2×) ATP (Promega, catalog #V915). For PDGFRα, 3.2 μM TK substrate and 1 μM ATP. For PDGFRβ, 3.2 μM TK substrate and 40 μM ATP. For CSFIR, […] TK substrate and 20 μM ATP. For FLT3, 3.2 μM TK substrate and 100 μM ATP. Reactions were initiated by addition of 5 μL of the respective 2x substrate mix to each well of the plates containing the respective tyrosine kinase enzymes and were allowed to proceed for 120 minutes at rt, except for FLT3, the reaction time is 45 min. Following the reaction, 10 μL of detection mix consisting of 0.2 μM (2×) of Streptavidin-XL665 and 2 μM (2×) of TK-Antibody-Cryptate prepared in detection buffer (Part 62SDBRDF of KinEASE assay kit) was added and then allowed to incubate for 60 min. The TR-FRET signal was quantified by measuring the ratio of emission at 665 nm to 620 nm after excitation at 320 nm by reading on a PerkinElmer Envision multimode reader. Compound potencies (IC50 values) were determined using a standard 4-parameter non-linear regression fit.

[3] = biological target: c-Kit (Homo sapiens (Human), UniProt P10721); assay: Inhibition of c-Kit kinase activity (HTRF KinEASE-TK); format: biochemical
In short: as §1

[4] = biological target: PDGFRβ (Homo sapiens (Human), UniProt P09619); assay: Inhibition of PDGFRβ kinase activity (HTRF KinEASE-TK)
In short: as §1

[5] = biological target: CSF1R (Homo sapiens (Human), UniProt P07333); assay: Inhibition of CSF1R kinase activity (HTRF KinEASE-TK)
In short: as §1

Sequence of PDGFRα (P16234 24-1089): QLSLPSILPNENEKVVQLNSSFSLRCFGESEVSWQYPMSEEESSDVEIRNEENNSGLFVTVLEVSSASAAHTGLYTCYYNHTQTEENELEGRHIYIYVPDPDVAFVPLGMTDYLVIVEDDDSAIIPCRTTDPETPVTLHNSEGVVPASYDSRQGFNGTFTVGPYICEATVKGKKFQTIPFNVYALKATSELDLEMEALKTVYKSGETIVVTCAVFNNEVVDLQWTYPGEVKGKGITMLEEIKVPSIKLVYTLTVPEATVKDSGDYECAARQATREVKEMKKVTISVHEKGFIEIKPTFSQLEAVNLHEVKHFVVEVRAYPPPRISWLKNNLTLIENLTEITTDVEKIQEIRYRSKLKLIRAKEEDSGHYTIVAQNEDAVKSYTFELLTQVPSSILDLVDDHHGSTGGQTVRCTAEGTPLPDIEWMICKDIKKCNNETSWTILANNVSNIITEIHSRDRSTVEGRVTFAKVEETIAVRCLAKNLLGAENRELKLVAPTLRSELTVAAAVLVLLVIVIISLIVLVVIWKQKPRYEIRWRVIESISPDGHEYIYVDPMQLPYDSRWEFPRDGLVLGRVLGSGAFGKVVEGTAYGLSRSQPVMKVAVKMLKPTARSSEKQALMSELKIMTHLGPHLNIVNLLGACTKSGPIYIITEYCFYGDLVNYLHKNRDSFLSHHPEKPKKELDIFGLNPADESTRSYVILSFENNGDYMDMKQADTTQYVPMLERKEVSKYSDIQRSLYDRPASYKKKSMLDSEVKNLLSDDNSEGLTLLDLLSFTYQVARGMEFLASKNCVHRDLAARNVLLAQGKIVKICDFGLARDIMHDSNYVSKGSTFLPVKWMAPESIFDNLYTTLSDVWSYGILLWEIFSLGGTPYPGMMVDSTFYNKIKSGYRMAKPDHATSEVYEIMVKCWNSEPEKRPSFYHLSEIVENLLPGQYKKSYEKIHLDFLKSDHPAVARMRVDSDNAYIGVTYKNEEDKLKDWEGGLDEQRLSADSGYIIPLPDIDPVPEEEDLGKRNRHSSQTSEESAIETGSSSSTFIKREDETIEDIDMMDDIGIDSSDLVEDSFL
Sequence of CSF1R (P07333 20-972): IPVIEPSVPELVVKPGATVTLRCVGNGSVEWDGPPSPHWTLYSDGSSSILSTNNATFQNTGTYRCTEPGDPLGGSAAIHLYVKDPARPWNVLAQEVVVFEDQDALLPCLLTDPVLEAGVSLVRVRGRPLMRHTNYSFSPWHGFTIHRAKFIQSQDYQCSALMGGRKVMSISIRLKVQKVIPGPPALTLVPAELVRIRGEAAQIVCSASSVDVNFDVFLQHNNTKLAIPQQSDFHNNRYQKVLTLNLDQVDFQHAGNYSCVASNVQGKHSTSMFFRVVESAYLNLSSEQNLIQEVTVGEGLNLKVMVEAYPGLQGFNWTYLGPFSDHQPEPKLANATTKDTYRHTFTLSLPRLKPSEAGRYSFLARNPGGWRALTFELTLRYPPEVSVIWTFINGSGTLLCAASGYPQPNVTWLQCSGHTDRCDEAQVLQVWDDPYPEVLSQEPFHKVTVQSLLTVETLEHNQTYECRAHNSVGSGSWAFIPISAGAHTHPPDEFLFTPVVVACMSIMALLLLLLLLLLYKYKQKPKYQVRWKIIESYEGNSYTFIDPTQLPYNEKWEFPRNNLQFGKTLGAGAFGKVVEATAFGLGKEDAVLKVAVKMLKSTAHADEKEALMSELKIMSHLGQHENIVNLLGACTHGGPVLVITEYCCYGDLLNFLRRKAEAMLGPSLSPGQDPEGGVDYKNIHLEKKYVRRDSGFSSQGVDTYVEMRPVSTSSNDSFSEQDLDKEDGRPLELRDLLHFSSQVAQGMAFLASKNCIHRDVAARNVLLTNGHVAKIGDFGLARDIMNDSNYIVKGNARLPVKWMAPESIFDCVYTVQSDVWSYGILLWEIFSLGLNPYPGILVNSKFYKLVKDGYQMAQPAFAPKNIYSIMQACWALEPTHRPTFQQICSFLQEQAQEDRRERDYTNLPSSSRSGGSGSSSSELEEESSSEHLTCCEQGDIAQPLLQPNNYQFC
Sequence of c-Kit (P10721 26-976): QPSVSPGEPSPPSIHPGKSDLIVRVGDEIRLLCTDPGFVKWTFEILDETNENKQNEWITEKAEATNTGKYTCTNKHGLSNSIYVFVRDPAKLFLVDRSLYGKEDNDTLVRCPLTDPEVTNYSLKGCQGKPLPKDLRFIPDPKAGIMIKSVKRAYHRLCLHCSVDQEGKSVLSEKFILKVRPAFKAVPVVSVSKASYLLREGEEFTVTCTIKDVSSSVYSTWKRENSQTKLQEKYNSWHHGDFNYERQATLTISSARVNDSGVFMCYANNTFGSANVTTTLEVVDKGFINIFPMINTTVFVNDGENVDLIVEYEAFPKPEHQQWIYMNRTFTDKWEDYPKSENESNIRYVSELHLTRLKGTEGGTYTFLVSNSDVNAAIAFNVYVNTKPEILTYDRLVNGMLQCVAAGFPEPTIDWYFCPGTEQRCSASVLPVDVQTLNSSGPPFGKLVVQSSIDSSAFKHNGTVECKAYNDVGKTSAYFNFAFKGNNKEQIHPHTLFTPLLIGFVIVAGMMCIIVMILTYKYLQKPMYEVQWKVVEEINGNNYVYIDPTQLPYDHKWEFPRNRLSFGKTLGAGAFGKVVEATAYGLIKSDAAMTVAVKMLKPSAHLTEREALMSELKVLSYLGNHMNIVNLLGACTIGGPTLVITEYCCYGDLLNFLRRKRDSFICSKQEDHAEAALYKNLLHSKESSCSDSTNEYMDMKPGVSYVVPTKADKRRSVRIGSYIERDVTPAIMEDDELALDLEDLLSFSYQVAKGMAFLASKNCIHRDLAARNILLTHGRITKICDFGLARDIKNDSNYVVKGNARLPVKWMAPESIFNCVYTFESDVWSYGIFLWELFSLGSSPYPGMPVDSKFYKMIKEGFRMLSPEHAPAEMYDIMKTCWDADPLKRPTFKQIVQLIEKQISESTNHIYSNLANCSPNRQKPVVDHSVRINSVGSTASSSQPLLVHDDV
Sequence of FLT3 (P36888 27-993): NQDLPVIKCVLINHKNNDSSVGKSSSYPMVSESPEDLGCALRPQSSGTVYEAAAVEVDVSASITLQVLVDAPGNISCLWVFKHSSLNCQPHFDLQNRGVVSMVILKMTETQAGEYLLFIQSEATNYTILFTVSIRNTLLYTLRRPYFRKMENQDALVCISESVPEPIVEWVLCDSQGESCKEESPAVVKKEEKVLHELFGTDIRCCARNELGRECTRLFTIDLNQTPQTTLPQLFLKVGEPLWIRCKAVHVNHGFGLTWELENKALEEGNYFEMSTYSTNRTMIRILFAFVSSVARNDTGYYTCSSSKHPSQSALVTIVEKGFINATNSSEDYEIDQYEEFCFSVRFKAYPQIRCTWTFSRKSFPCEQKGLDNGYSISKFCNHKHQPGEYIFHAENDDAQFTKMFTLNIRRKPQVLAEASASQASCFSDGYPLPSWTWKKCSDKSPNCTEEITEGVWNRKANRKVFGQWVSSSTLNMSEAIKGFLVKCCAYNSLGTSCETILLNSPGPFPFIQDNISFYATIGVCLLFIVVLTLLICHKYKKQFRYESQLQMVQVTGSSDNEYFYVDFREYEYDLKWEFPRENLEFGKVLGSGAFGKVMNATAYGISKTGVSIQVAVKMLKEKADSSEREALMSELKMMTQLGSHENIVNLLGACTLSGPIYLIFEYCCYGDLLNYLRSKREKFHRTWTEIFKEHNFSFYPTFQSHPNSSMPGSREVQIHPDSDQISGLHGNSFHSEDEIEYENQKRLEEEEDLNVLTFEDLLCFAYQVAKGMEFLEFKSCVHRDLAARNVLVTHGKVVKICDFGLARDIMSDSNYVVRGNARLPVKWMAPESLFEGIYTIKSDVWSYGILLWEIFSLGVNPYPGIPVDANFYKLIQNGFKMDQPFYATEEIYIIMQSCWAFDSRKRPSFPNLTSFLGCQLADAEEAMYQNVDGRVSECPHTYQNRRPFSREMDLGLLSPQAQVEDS
Sequence of PDGFRβ (P09619 33-1106): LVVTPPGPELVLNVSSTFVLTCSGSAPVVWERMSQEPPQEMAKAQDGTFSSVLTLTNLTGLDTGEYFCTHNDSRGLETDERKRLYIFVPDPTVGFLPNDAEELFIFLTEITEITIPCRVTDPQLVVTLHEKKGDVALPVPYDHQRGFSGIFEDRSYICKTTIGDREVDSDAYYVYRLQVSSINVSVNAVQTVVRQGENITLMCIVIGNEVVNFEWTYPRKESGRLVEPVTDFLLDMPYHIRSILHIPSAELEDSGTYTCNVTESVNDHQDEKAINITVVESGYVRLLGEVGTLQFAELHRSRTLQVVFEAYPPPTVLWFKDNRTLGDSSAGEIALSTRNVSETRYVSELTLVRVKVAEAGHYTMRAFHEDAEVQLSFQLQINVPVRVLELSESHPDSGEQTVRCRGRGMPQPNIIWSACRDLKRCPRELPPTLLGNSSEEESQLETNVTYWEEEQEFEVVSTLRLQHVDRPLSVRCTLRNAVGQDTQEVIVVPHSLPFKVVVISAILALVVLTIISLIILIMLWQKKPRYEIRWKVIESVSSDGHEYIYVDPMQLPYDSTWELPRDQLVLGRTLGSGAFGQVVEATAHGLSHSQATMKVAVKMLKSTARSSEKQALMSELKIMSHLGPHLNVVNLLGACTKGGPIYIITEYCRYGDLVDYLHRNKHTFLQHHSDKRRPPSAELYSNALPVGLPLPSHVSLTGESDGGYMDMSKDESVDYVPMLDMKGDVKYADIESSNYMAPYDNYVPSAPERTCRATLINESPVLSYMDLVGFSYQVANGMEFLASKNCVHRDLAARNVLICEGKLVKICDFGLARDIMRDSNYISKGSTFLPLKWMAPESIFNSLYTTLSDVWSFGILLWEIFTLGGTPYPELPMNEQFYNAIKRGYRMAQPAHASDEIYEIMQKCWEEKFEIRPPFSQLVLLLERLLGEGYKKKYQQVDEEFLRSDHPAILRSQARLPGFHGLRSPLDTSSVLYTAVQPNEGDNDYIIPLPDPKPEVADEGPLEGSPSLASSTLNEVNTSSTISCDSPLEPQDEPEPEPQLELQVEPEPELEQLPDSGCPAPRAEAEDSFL

| SMILES | pIC50 ([1]; HTRF KinEASE-TK) | pIC50 ([2]; HTRF KinEASE-TK) | pIC50 ([3]; HTRF KinEASE-TK) | pIC50 ([4]; HTRF KinEASE-TK) | pIC50 ([5]; HTRF KinEASE-TK) | pIC50 [1] | pIC50 [2] | pIC50 [3] | pIC50 [4] | pIC50 [5] |
| --- | --- | --- | --- | --- | --- | --- | --- | --- | --- | --- |
| Cc1cc(F)c(C(=O)N[C@H]2C[C@H]2F)cc1NC(=O)c1cnc(N)s1 [Example 136, 2-Amino-N-[4-fluoro-5-[[(1S,2R)-2-fluorocyclopropyl]carbamoyl]-2-methylphenyl]-1,3-thiazole-5-carboxamide] | 6.00 to 7.00 | < 6.00 | 6.00 to 7.00 | < 6.00 | < 6.00 | – | – | – | – | – |
| Nc1ncc(C(=O)Nc2cc(C(=O)Nc3ccc(OC4CC4)cn3)c(F)cc2Br)s1 [Example 236, 2-Amino-N-[2-bromo-5-[(5-cyclopropyloxypyridin-2-yl)carbamoyl]-4-fluorophenyl]-1,3-thiazole-5-carboxamide] | < 6.00 | < 6.00 | > 7.00 | 6.00 to 7.00 | 6.00 to 7.00 | – | – | – | – | – |
| Cc1ncc(C(=O)Nc2cc(C(=O)Nc3ccc(C(F)(F)F)cn3)c(F)cc2C)s1 [Example 14, N-[4-Fluoro-2-methyl-5-[[5-(trifluoromethyl)pyridin-2-yl]carbamoyl]phenyl]-2-methyl-1,3-thiazole-5-carboxamide] | < 6.00 | < 6.00 | > 7.00 | < 6.00 | < 6.00 | – | – | – | – | – |
| Cc1cc(F)c(C(=O)Nc2ccc(OC3CC3)cn2)cc1NC(=O)c1cnc(NC(=O)C(F)(F)F)s1 [Example 239, N-[5-[(5-cyclopropyloxypyridin-2-yl)carbamoyl]-4-fluoro-2-methylphenyl]-2-[(2,2,2-trifluoroacetyl)amino]-1,3-thiazole-5-carboxamide] | < 6.00 | < 6.00 | > 7.00 | 6.00 to 7.00 | < 6.00 | – | – | – | – | – |
| Cc1cnc(NC(=O)c2cc(NC(=O)c3cnc(N)s3)c(C)cc2F)s1 [Example 160, 2-Amino-N-[4-fluoro-2-methyl-5-[(5-methyl-1,3-thiazol-2-yl)carbamoyl]phenyl]-1,3-thiazole-5-carboxamide] | < 6.00 | < 6.00 | > 7.00 | 6.00 to 7.00 | 6.00 to 7.00 | – | – | – | – | – |
| Cc1ncc(C(=O)Nc2cc(C(=O)Nc3ccn(C4CCC4)n3)c(F)cc2C)s1 [Example 61, N-[5-[(1-Cyclobutylpyrazol-3-yl)carbamoyl]-4-fluoro-2-methylphenyl]-2-methyl-1,3-thiazole-5-carboxamide] | < 6.00 | < 6.00 | > 7.00 | < 6.00 | < 6.00 | – | – | – | – | – |
| Cc1cc(F)c(C(=O)Nc2ccc(OC(F)F)cc2)cc1NC(=O)c1cnc(N)s1 [Example 227, 2-Amino-N-[5-[[4-(difluoromethoxy)phenyl]carbamoyl]-4-fluoro-2-methylphenyl]-1,3-thiazole-5-carboxamide] | > 7.00 | < 6.00 | > 7.00 | > 7.00 | > 7.00 | – | – | – | – | – |
| COC(c1ccc(NC(=O)c2cc(NC(=O)c3cnc(N)s3)c(C)cc2F)nc1)C1CC1 (centres unmarked) [Example 197, 2-Amino-N-[5-[[5-[cyclopropyl(methoxy)methyl]pyridin-2-yl]carbamoyl]-4-fluoro-2-methylphenyl]-1,3-thiazole-5-carboxamide] | < 6.00 | < 6.00 | > 7.00 | 6.00 to 7.00 | < 6.00 | – | – | – | – | – |
| Cc1cc(F)c(C(=O)Nc2cnn(C3CC3)c2)cc1NC(=O)c1cnc(N)s1 [Example 161, 2-Amino-N-[5-[(1-cyclopropylpyrazol-4-yl)carbamoyl]-4-fluoro-2-methylphenyl]-1,3-thiazole-5-carboxamide] | 6.00 to 7.00 | < 6.00 | > 7.00 | 6.00 to 7.00 | 6.00 to 7.00 | – | – | – | – | – |
| Cc1cc(F)c(C(=O)Nc2ccc(OC3CC3)cn2)cc1NC(=O)c1cnc(NC(=O)N2CCC2)s1 [Example 6, 2-(Azetidine-1-carbonylamino)-N-[5-[(5-cyclopropyloxypyridin-2-yl)carbamoyl]-4-fluoro-2-methylphenyl]-1,3-thiazole-5-carboxamide] | – | – | – | – | – | > 7.00 | < 6.00 | > 7.00 | > 7.00 | > 7.00 |
| Cc1cc(F)c(C(=O)N[C@@H]2C[C@@H]2F)cc1NC(=O)c1cnc(N)s1 [Example 137] | 6.00 to 7.00 | < 6.00 | > 7.00 | < 6.00 | < 6.00 | – | – | – | – | – |
| Cc1ncc(NC(=O)c2cc(NC(=O)c3cnc(N)s3)c(C)cc2F)s1 [Example 166, 2-Amino-N-[4-fluoro-2-methyl-5-[(2-methyl-1,3-thiazol-5-yl)carbamoyl]phenyl]-1,3-thiazole-5-carboxamide] | < 6.00 | < 6.00 | > 7.00 | 6.00 to 7.00 | 6.00 to 7.00 | – | – | – | – | – |
| CC(=O)Nc1ncc(C(=O)Nc2cc(C(=O)Nc3ccc(OC4CC4)cn3)c(F)cc2C)s1 [Example 240, 2-Acetamido-N-[5-[(5-cyclopropyloxypyridin-2-yl)carbamoyl]-4-fluoro-2-methylphenyl]-1,3-thiazole-5-carboxamide] | < 6.00 | < 6.00 | > 7.00 | > 7.00 | < 6.00 | – | – | – | – | – |
| Cc1cc(F)c(C(=O)Nc2cnn(C(C)C)n2)cc1NC(=O)c1cnc(N)s1 [Example 171, 2-Amino-N-[4-fluoro-2-methyl-5-[(2-propan-2-yltriazol-4-yl)carbamoyl]phenyl]-1,3-thiazole-5-carboxamide] | 6.00 to 7.00 | < 6.00 | > 7.00 | 6.00 to 7.00 | 6.00 to 7.00 | – | – | – | – | – |
| Cc1cc(F)c(C(=O)Nc2cnn(C)c2)cc1NC(=O)c1cnc(N)s1 [Example 167, 2-Amino-N-[4-fluoro-2-methyl-5-[(1-methylpyrazol-4-yl)carbamoyl]phenyl]-1,3-thiazole-5-carboxamide] | < 6.00 | < 6.00 | > 7.00 | < 6.00 | < 6.00 | – | – | – | – | – |
| Cc1cc(F)c(C(=O)Nc2ccn(C)n2)cc1NC(=O)c1cnc(N)s1 [Example 163, 2-Amino-N-[4-fluoro-2-methyl-5-[(1-methylpyrazol-3-yl)carbamoyl]phenyl]-1,3-thiazole-5-carboxamide] | < 6.00 | < 6.00 | > 7.00 | < 6.00 | < 6.00 | – | – | – | – | – |
| Cc1cc(F)c(C(=O)N[C@H]2CCOC2)cc1NC(=O)c1cnc(NC(=O)N2CCOCC2)s1 [Example 105, N-[5-[[4-fluoro-2-methyl-5-[[(3S)-oxolan-3-yl]carbamoyl]phenyl]carbamoyl]-1,3-thiazol-2-yl]morpholine-4-carboxamide] | < 6.00 | < 6.00 | > 7.00 | < 6.00 | < 6.00 | – | – | – | – | – |
| Cc1ncc(C(=O)Nc2cc(C(=O)Nc3ncc(C4CC4)cn3)c(F)cc2C)s1 [Example 44, NV-[5-[(5-cyclopropylpyrimidin-2-yl)carbamoyl]-4-fluoro-2-methylphenyl]-2-methyl-1,3-thiazole-5-carboxamide] | < 6.00 | < 6.00 | > 7.00 | < 6.00 | < 6.00 | – | – | – | – | – |
| Cc1cc(F)c(C(=O)N[C@H]2C[C@@H]2F)cc1NC(=O)c1cnc(N)s1 [Example 138, 2-Amino-N-[4-fluoro-5-[[(1S,2S)-2-fluorocyclopropyl]carbamoyl]-2-methylphenyl]-1,3-thiazole-5-carboxamide] | 6.00 to 7.00 | < 6.00 | > 7.00 | < 6.00 | < 6.00 | – | – | – | – | – |
